Common to all, as to assay type: cell-based
Series [1] is described as follows: Cytotoxic effect (CTE) of peptides on Vero cell monolayer. The conditions noted are these: Vero cell monolayer; Vero cells; read-out: CTE: peptide concentration causing damage to 50% of the monolayer.
Series [2] relates to Vero cells. The series is described as above. To be noted: at the assayed conditions.
The subject of series [3] is dengue 2 virus (DV2, strain S16803). Put plainly: Plaque reduction neutralization assay (PRNT) in Vero cells, dengue 2 virus. The conditions noted are these: for antiviral activity (inhibition of infection by DV2, plaque reduction), in words: Vero cells. As for the experimental part: Vero cells were grown in 24-well plates to approximately 90% confluence, and washed twice with MEM medium without FCS. Peptide dilutions were added according to the particular assay and incubated typically during 1 h at 37° C. After the incubation, the virus was added at a multiplicity of infection of 0.1, followed by a subsequent incubation for 1 hour at 37 C. In certain experiments the peptides were added simultaneously with the virus (without preincubation) or the peptide preincubation time was modified. At the end of the second incubation, the unbound virus was eliminated by washing, and the cells were incubated for 5 days at 37 C in high density medium (MEM supplemented with non essential amino acids, 1% FCS, 1% carboxymethylcellulose) in order to propitiate the appearance of lytic plaques. The plaques were visualized by staining with 0.1% Naphtol Blue Black in 0.15 Mol/L sodium acetate. Two replicates were used per experimental point in each assay, and three independent determinations were performed. The inhibition percentage was calculated according to the expression: […]
In order to determine the role of the cell penetrating peptide and the ER retention signal on the antiviral activity of peptides of the present invention we tested peptides No 1, 2, 3 and 4 of table 1 for inhibition of the viral infection by VD2 in Vero cells, using the assay described in the example 2.
Background: In a plaque reduction assay, fewer plaques than in the control indicate reduced infectivity or spread.

As to `CC[C@H](C)[C@H](NC(=O)[C@H](CO)NC(=O)[C@H](CC(C)C)NC(=O)[C@@H](NC(=O)[C@@H]1CCCN1C(=O)[C@H](CO)NC(=O)[C@H](CO)NC(=O)CNC(=O)CNC(=O)CNC(=O)[C@H](CCC(N)=O)NC(=O)[C@@H]1CCCN1C(=O)[C@@H]1CCCN1C(=O)[C@H](CCCNC(=N)N)NC(=O)[C@H](CCCNC(=N)N)NC(=O)[C@H](CCCNC(=N)N)NC(=O)[C@H](CCC(N)=O)NC(=O)[C@H](CCCNC(=N)N)NC(=O)[C@H](CCCNC(=N)N)NC(=O)[C@H](CCCCN)NC(=O)[C@H](CCCCN)NC(=O)[C@H](CCCNC(=N)N)NC(=O)CNC(=O)[C@@H](N)Cc1ccc(O)cc1)[C@@H](C)CC)C(=O)N[C@H](C(=O)N[C@H](C(=O)N[C@@H](CO)C(=O)N[C@@H](CCC(=O)O)C(=O)N[C@@H](CC(=O)O)C(=O)NCC(N)=O)[C@@H](C)CC)[C@@H](C)O` [NS2Bden2+TAT], the CC50 in series [1] was 150 µM. Still for that read-out and setting: for `CC[C@H](C)[C@H](NC(=O)[C@H](CO)NC(=O)[C@H](CC(C)C)NC(=O)[C@@H](NC(=O)[C@@H]1CCCN1C(=O)[C@H](CO)NC(=O)[C@H](CO)NC(=O)CNC(=O)CNC(=O)CNC(=O)[C@H](CCC(N)=O)NC(=O)[C@@H]1CCCN1C(=O)[C@@H]1CCCN1C(=O)[C@H](CCCNC(=N)N)NC(=O)[C@H](CCCNC(=N)N)NC(=O)[C@H](CCCNC(=N)N)NC(=O)[C@H](CCC(N)=O)NC(=O)[C@H](CCCNC(=N)N)NC(=O)[C@H](CCCNC(=N)N)NC(=O)[C@H](CCCCN)NC(=O)[C@H](CCCCN)NC(=O)[C@H](CCCNC(=N)N)NC(=O)CNC(=O)[C@@H](N)Cc1ccc(O)cc1)[C@@H](C)CC)C(=O)N[C@H](C(=O)N[C@H](C(=O)N[C@@H](CO)C(=O)N[C@@H](CCC(=O)O)C(=O)N[C@@H](CC(=O)O)C(=O)NCC(=O)NCC(=O)NCC(=O)N[C@@H](CCCCN)C(=O)N[C@@H](CC(=O)O)C(=O)N[C@@H](CCC(=O)O)C(=O)N[C@@H](CC(C)C)C(=O)O)[C@@H](C)CC)[C@@H](C)O` [NS2Bden2 + TAT + KDEL] the value was over 150 µM. Take `CC[C@H](C)[C@H](NC(=O)[C@H](CCCCN)NC(=O)[C@@H](NC(=O)[C@H](CCC(N)=O)NC(=O)[C@@H](N)CCCNC(=N)N)[C@@H](C)CC)C(=O)N[C@@H](Cc1c[nH]c2ccccc12)C(=O)N[C@@H](Cc1ccccc1)C(=O)N[C@@H](CCC(N)=O)C(=O)N[C@@H](CC(N)=O)C(=O)N[C@@H](CCCNC(=N)N)C(=O)N[C@@H](CCCNC(=N)N)C(=O)N[C@@H](CCSC)C(=O)N[C@@H](CCCCN)C(=O)N[C@@H](Cc1c[nH]c2ccccc12)C(=O)N[C@@H](CCCCN)C(=O)N[C@@H](CCCCN)C(=O)NCC(=O)NCC(=O)NCC(=O)N[C@@H](CO)C(=O)N[C@@H](CO)C(=O)N1CCC[C@H]1C(=O)N[C@H](C(=O)N[C@@H](CC(C)C)C(=O)N[C@@H](CO)C(=O)N[C@H](C(=O)N[C@H](C(=O)N[C@H](C(=O)N[C@@H](CO)C(=O)N[C@@H](CCC(=O)O)C(=O)N[C@@H](CC(=O)O)C(=O)NCC(N)=O)[C@@H](C)CC)[C@@H](C)O)[C@@H](C)CC)[C@@H](C)CC` [NS2Bden2-pP2]: the “toxicity on the cells, in words” value in series [2] is “significant cytotoxicity”. For the same compound, the CC50 in series [1] is 50 µM. With `CC[C@H](C)[C@H](NC(=O)[C@H](CO)NC(=O)[C@H](CC(C)C)NC(=O)[C@@H](NC(=O)[C@@H]1CCCN1C(=O)[C@H](CO)NC(=O)[C@H](CO)NC(=O)CNC(=O)CNC(=O)CNC(=O)[C@H](CCCNC(=N)N)NC(=O)[C@H](CCCNC(=N)N)NC(=O)[C@H](CCCNC(=N)N)NC(=O)[C@H](CCCNC(=N)N)NC(=O)[C@H](CCCNC(=N)N)NC(=O)[C@H](CCCNC(=N)N)NC(=O)[C@H](CCCNC(=N)N)NC(=O)[C@H](CCCNC(=N)N)NC(=O)[C@H](CCCNC(=N)N)NC(=O)[C@@H](N)CCCNC(=N)N)[C@@H](C)CC)C(=O)N[C@H](C(=O)N[C@H](C(=O)N[C@@H](CO)C(=O)N[C@@H](CCC(=O)O)C(=O)N[C@@H](CC(=O)O)C(=O)NCC(N)=O)[C@@H](C)CC)[C@@H](C)O` [NS2Bden2-pRR], the CC50 in series [1] is over 50 µM. For the compound “segment [I] of peptide NS2Bden2+TAT (SSPILSITISEDG), lacks the cell penetrating segment”, the results for the “antiviral activity (inhibition of infection by DV2, plaque reduction), in words” value in series [3] and in series [3] (listed as NS3pro protease activation inhibitor segment [I]) were “does not inhibit” and “does not show antiviral activity in vitro”, respectively. Consider “TAT peptide: YGRKKRRQRRRPPQ; SEQ ID NO 64; cell penetrating TAT peptide, negative control (Description of the Artificial Sequence chimerical peptide) [reference compound]”, for which the “number of plaques in presence of peptide” value in series [3] (DV2, Vero cells, FIG. 2B) is reported as “increase in the number of plaques”. Further, in series [3], the “antiviral activity (inhibition of infection by DV2, plaque reduction), in words” value is on record as “did not show antiviral activity”.

The record behind these values is patent US8674063B2, “Chimerical peptidic molecules with antiviral properties against the viruses of the Flaviviridae family” (Centro de Ingenieria Genetica y Biotecnologia, priority 2006, dated 2014).
